In patent US20080255079A1, “Therapeutic Use of Nefopam and Analogues Thereof” (priority 2005, published 2008):
Structures can show the parent of a compound that is named as a salt. Marks after values point to notes of the source that are not given here.

What was measured:
[1] = system: formalin-induced paw licking model in mice; assay: Formalin-induced hyperalgesia (paw licking) in mouse; format: in vivo; details: for Nociception, hindpaw licking time, early phase: early phase (0-5 min after formalin); for Nociception, hindpaw licking time, early phase / Nociception, hindpaw licking time, late phase: 60 min before formalin, vs vehicle; for licking behaviour compared to vehicle control, first phase (in words): first phase (acute nociceptive pain), at both 60 and 100 mg/kg; for Nociception, hindpaw licking time, late phase: late phase (20-30 min after formalin); for paw licking time compared to vehicle control (in words): po, both phases; for licking behaviour, second phase (in words): second phase (persistent pain states), 100 mg/kg
Protocol: Nefopam and (+)-nefopam have been evaluated in the formalin-induced paw licking model in mice. […] The late phase seems to be an inflammatory response and is a recognized model of persistent pain. This test may, therefore, be a useful indicator of analgesic efficacy in fibromyalgia. Compounds were evaluated for both an early stage response and a late stage response and compared against morphine as control.
Inflammation was induced by subplantar injection of a 5% formalin solution (0.02 ml) into the mouse right hindpaw (20-25 g male Rj: NMRI). Hindpaw licking time was continuously recorded in a blinded fashion between 0 to 5 minutes (early phase) and between 20 to 30 minutes (late phase) after formalin injection (Hunskaar etal., 1985—J. Neurosci. Methods; 14:69-76).
The test substances and vehicle were orally administered 60 min before formalin injection.

[2] = system: mice forced to swim (duration of immobility); assay: Behavioural Despair Test in mouse; format: in vivo; details: for Duration of Immobility (% change from ctrl): 30 min before test; for anti-depressant activity (in words): ip
Protocol: Nefopam and (+)-nefopam have been evaluated in the Behavioural Despair Test, a model which detects antidepressant activity. This test was conducted according to the method of Porsolt et al., (1977—Arch. Int. Pharmacodyn., 229:327-336), in which mice are forced to swim in a situation from which they cannot escape rapidly become immobile. Antidepressants decrease the duration of immobility.
Mice (20-27 g male Rj: NMRI) were individually placed in a cylinder (height=24 cm, diameter=13 cm) containing 10 cm water (22° C.) from which they cannot escape. The mice were placed in the water for 6 minutes and the duration of immobility during the last 4 minutes was measured. All compounds were administered i.p. 30 minutes before the test, and compared with a vehicle control group. Imipramine (32 mg/kg i.p.), administered under the same experimental conditions, was used as reference substance.

[3] = system: mice exposed to marbles (marble burying); assay: Marble Burying Test in mouse; format: in vivo; details: for Number of marbles buried (% change from ctrl): 30 min before test; for antidepressant and anxiolytic activity (in words): ip
Source text: Nefopam and (+)-nefopam have been evaluated in the Marble Burying Test, a model which detects anxiolytic/tranquillizing activity. The method follows that described by Broekkamp et al. (1986—Eur. J. Pharmacol., 126, 223-229). Mice exposed to novel object (marbles) will bury them in the sawdust floor covering. Anxiolytics decrease the number of marbles buried at non-sedative doses.
Mice are individually placed in transparent plastic cages (33×21×18 cm) with 5 cm of sawdust on the floor, and 25 marbles grouped in the centre of the cage. The cage is covered with an inverted plastic cage. Each test cage, together with the marbles, is impregnated with mouse odor beforehand, by leaving 10 mice in the cage for 15 minutes. These mice then play no further role in the experiment. The number of marbles covered by sawdust (⅔ or more) is counted at the end of a 30 minute test.
All compounds were administered i.p. 30 minutes before the test, and compared with a vehicle control group. Clobazam (8 mg/kg i.p.), administered under the same experimental conditions, was used as reference substance.

[4] = conventional release preparations; cited from earlier work

Structure (SMILES)	Nociception, hindpaw licking time, early phase ([1]; 30 mg/kg po)	Nociception, hindpaw licking time, early phase ([1]; 60 mg/kg po)	Nociception, hindpaw licking time, early phase ([1]; 100 mg/kg po)	licking behaviour compared to vehicle control, first phase (in words) [1]	Nociception, hindpaw licking time, late phase ([1]; 30 mg/kg po)	Nociception, hindpaw licking time, late phase ([1]; 60 mg/kg po)	Nociception, hindpaw licking time, late phase ([1]; 100 mg/kg po)	paw licking time compared to vehicle control (in words) [1]	licking behaviour, second phase (in words) [1]	Duration of Immobility (% change from ctrl) ([2]; 20 mg/kg ip)	Duration of Immobility (% change from ctrl) ([2]; 40 mg/kg ip)	Duration of Immobility (% change from ctrl) ([2]; 60 mg/kg ip)	anti-depressant activity (in words) [2]	Number of marbles buried (% change from ctrl) ([3]; 10 mg/kg ip)	Number of marbles buried (% change from ctrl) ([3]; 20 mg/kg ip)	Number of marbles buried (% change from ctrl) ([3]; 40 mg/kg ip)	antidepressant and anxiolytic activity (in words) [3]	other results
CN1CCOC(c2ccccc2)c2ccccc2C1 (racemic) [Nefopam, 5-methyl-1-phenyl-3,4,5,6-tetrahydro-1H-2,5-benzoxazocine hydrochloride]	−28%	−64%*	−85%*	significant reduction in licking behaviour	−41%	−63%*	−89%*	dose-dependently decreased paw licking time	significant reduction in licking behaviour	−42 % change from ctrl	−85 * % change from ctrl	−100 * % change from ctrl	significant anti-depressant activity	−66 * % change from ctrl	−98 * % change from ctrl	−100 * % change from ctrl	significant antidepressant and anxiolytic activity	elimination half-life [4]: four
CN1CCO[C@@H](c2ccccc2)c2ccccc2C1 [(+)-Nefopam]	−40%	−59%*	−86%*	significant reduction in licking behaviour	−31%	−69%	−90%*	dose-dependently decreased paw licking time	significant reduction in licking behaviour	−38 % change from ctrl	−92 * % change from ctrl	−100 * % change from ctrl	significant anti-depressant activity	−56 * % change from ctrl	−99 * % change from ctrl	−100 * % change from ctrl	significant antidepressant and anxiolytic activity	–
CN1C(=O)CC(=O)N(c2ccccc2)c2cc(Cl)ccc21 [Clobazam]	–	–	–	–	–	–	–	–	–	–	–	–	–	–	–	–	–	Number of marbles buried (% change from ctrl) ([3]; 32 mg/kg ip): −75 * % change from ctrl
CN(C)CCCN1c2ccccc2CCc2ccccc21 [Imipramine]	–	–	–	–	–	–	–	–	–	–	–	–	–	–	–	–	–	Duration of Immobility (% change from ctrl) ([2]; 32 mg/kg ip): −80 * % change from ctrl
CN1CC[C@]23c4c5ccc(O)c4O[C@H]2[C@@H](O)C=C[C@H]3[C@H]1C5 [Morphine]	–	–	–	–	–	–	–	–	–	–	–	–	–	–	–	–	–	Nociception, hindpaw licking time, early phase ([1]; 80 mg/kg po): −98%*; Nociception, hindpaw licking time, late phase ([1]; 80 mg/kg po): −98%*
